# PMC11930985 (Nature Communications, 2025)
# Like-named read-outs stand apart in the source and are kept apart here.
# What was measured:
# AML/MDS patients = system: AML/MDS patients
# Procedure: Safety assessments including standard clinical laboratory safety tests (hematology, biochemistry, coagulation, and urinalysis), physical examinations, vital signs (blood pressure, heart rate, respiration rate and temperature), and ECOG performance status were performed at baseline and throughout the study. Electrocardiograms were obtained at screening, Cycle 1 Day 1–4, 8, and 15, Cycle 2 Day 1, 8 and 15, at Day 1 of each cycle thereafter, (up to and including Cycle 15), and at Final Study Visit. QT prolongation was assessed using the Fridericia correction […] [34]. Severity of QTcF prolongation was defined as follows: Grade 1: maximum prolongation 450–480 ms; Grade 2: maximum prolongation 481-500 ms; Grade 3: ≥501 ms on at least two separate ECGs; Grade 4: ≥501 ms or >60 ms change from baseline, with Torsades de pointes, polymorphic ventricular tachycardia or signs/symptoms of serious arrythmia; Grade 5: Death.
# Adverse events (AEs) were monitored starting at study enrolment until 28 days after end of treatment and graded according to the National Cancer Institute Common Terminology Criteria for Adverse Events (NCI-CTCAE) version 4.0. If drug-related toxicities continued beyond the follow-up period, patients were followed until all drug-related toxicities resolved to grade ≤1, stabilized or returned to baseline.
# CYP3A4 = system: CYP3A4; set-up: method as in Investigator's Brochure (IB) version 5.0; details: preliminary results; ref Investigator's Brochure (IB) version 5.0; cited from earlier work
# AML patients = details: cited from earlier work; for Remissions (CR and CRi), patients: patients not eligible for intensive chemotherapy
structure (smiles),measurement,setting,value
"Nc1ccn([C@@H]2O[C@H](CO)[C@@H](O)[C@@H]2O)c(=O)n1 [Cytarabine, reference compound]",Patients with cytarabine dose-reduced,AML/MDS patients; LDAC cohorts,4
same,Patients with cytarabine interrupted,"AML/MDS patients; human, in vivo",8
same,Patients with cytarabine withdrawn,"AML/MDS patients; human, in vivo",1
same,Extensive metabolism by CYP3A4,CYP3A4,does not
same,Response rate,AML patients; R/R-AML,< 20%
same,"Remissions (CR and CRi), patients",AML patients,less than 35%
Nc1ncn([C@@H]2O[C@H](CO)[C@@H](O)[C@H]2O)c(=O)n1 [azacitidine],"Remissions (CR and CRi), patients",AML patients,less than 35%
Nc1ncn([C@H]2C[C@H](O)[C@@H](CO)O2)c(=O)n1 [decitabine],"Remissions (CR and CRi), patients",AML patients,less than 35%
CC1(C)CCC(CN2CCN(c3ccc(C(=O)NS(=O)(=O)c4ccc(NCC5CCOCC5)c([N+](=O)[O-])c4)c(Oc4cnc5[nH]ccc5c4)c3)CC2)=C(c2ccc(Cl)cc2)C1 [venetoclax],Response rate,"AML patients; HMA or LDAC plus venetoclax, venetoclax-naïve R/R-AML",31%
same,Response rates,"AML patients; venetoclax added to less-intensive regimens (HMAs or LDAC), frontline",60–75%
